Our source for the Ki values is PMC7105311, “Structure and function of Bs164 β-mannosidase from Bacteroides salyersiae the founding member of glycoside hydrolase family GH164” (The Journal of Biological Chemistry, 2019).

Read-outs that look alike come from different tables or passages of the source.

Usually Ki stands for the dissociation constant of the complex between target and ligand, obtained from inhibition or displacement. Higher therefore signals weaker binding.

The target of the experiment is T1, Bs164 (Bacteroides salyersiae, UniProt I9SUA3).
T1 construct: gene HMPREF1071_03408; tag cut by 3C protease for kinetics, His6-tagged for crystals
T1 sequence (I9SUA3 22-673): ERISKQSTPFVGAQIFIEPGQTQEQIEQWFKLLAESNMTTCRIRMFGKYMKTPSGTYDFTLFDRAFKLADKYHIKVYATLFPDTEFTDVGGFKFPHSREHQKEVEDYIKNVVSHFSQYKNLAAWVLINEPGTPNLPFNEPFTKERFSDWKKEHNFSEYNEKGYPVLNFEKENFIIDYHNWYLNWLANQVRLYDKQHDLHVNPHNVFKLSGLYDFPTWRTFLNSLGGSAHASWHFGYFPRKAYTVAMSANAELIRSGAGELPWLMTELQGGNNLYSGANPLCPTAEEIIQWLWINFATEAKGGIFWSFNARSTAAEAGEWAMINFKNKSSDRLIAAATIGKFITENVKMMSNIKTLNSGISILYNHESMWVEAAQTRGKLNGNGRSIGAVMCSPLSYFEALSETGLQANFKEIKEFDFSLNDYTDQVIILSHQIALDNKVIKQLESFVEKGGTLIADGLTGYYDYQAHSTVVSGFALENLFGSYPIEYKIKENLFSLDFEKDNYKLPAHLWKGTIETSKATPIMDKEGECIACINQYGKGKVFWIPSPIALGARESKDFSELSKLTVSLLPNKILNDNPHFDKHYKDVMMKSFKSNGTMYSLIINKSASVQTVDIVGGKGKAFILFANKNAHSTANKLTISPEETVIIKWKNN
The experiment is described as follows: inhibition of pNP β-Man hydrolysis, absorbance, competitive model fit. It counts as biochemical. From the text:
inhibition of pNP β-Man hydrolysis, absorbance, competitive model fit on Bs164 | Mannoimidazole and noeuromycin act as competitive inhibitors of Bs164 with inhibition constants (Ki)

For the molecule `OC[C@@H]1[C@@H](O)[C@H](O)[C@H](O)c2nccn21` [mannoimidazole], the Ki was found to be 470 ± 60 µM.
Regarding `OC[C@H]1CN[C@@H](O)[C@@H](O)[C@@H]1O` [noeuromycin], the affinity (competitive, substrate pNP β-Man, 80 mM MES pH 5.5, 160 mM NaCl, 25 °C, crystal structure 2.06 Å, -1 subsite), expressed as Ki, was 0.34 ± 0.04 µM.
